# Test results published in publication PMC9310824 (Drug Delivery, 2022).
# What was measured:
# [1] = parameters: method as in Yao et al., 2014; conditions: PBS, within 24 h, ref Yao et al., 2014; cited from earlier work
# [2] = Drug release study in vitro by dialysis; format: physicochemical; conditions: within 48 h, 37 °C
# Experimental: The release of AS in vitro was determined by dialysis (Algul et al., [2018]). AS free drug dispersion solution (5 mg/mL, 1 mL) and AS-AL-mPEG-PLGA containing the same volume and concentration of AS were added into dialysis bags (MV 3500 D, 25 mm × 5 m) accordingly. The dialysis bags were placed in a conical flask after their two sections have been fastened together. Subsequently, 100 mL releasing media (pH 1.2 HCl solution, double distilled water and pH 7.4 PBS solution) were added consequently, before the conical flask was placed in a thermostatic water bath oscillator (37 ± 0.5 °C, 100 rpm) for in vitro release experiment. Samples were taken from the conical flask after 0.083, 0.25, 0.5, 0.75, 1, 1.5, 2, 3, 4, 6, 8, 10, 12, 24, 36, 48, 60, 72, 84 and 96 h of oscillation, respectively, while the same stable release medium with the same volume was added accordingly to maintain its dynamic balance. The samples were centrifugated at 10,000 rpm for 10 min before injection into HPLC for analysis according to the chromatographic conditions under the section of “HPLC analysis of AS.” Finally, the peak areas were recorded, and the concentrations of AS were substituted into the standard curve to calculate the cumulative drug release rate.
# [3] = Pharmacokinetic study in rats; format: in vivo, SD rats; conditions: oral
# Experimental: Twelve SD rats (male, 200 ± 20 g) were maintained in the laboratory environment for 3 days before experiments. The rats were randomly divided into the free AS group and AS-AL-mPEG-PLGA group with 6 rats in each group. The rats have fasted from food for 12 h with free access to water before the experiment. Rats in the two groups were orally given free AS (dispersed CMC-Na solution) and AS-AL-mPEG-PLGA of equivalent AS dose (150 mg/kg). At each point of 0.25, 0.5, 0.75, 1, 1.5, 2, 2.5, 3, 4, 6, 8, 10, 12 and 24 h after administration, blood samples (0.4 mL) were collected from the orbit of rats with capillaries. The blood samples were placed in a 1.5 mL EP tube filled with heparin sodium and centrifuged at 3700 rpm for 10 min. Aliquot (200 μL) of supernatant was collected into another clean 1.5 mL EP tube. Next, 600 μL of methanol was added into the tube before vortexing for 1 min. The mixture was centrifuged at 10,000 rpm for 10 min and the methanol layer was […] prior to drying with N2 at 37 °C. The residue was dissolved with 100 μL methanol coupled with vortexing for 1 min, and then 10 min of centrifugation at 10,000 rpm. Then, the supernatant was taken and analyzed with HPLC. The peak areas of AS and internal standard were recorded and substituted into the standard curve in vivo to subsequently calculate the concentration of AS.
# [4] = Detection of AS content in rats' bones; format: in vivo; conditions: femur homogenate (1 g/mL saline) after the pharmacokinetic experiment, oral 150 mg/kg
# Experimental: After the pharmacokinetic experiment, the rats were sacrificed and the femurs were homogenized with normal saline at a ratio of 1 g/mL. We then centrifugated the homogenized samples at 10,000 rpm for 10 min, before treatment of the supernatant (200 μL) via the same method as described in the section “Pharmacokinetic study in rats.” Finally, the samples were analyzed via the HPLC method to detect the AS concentration in rats’ bones.
# [5] = test system: rat osteoporosis model (OVX); assay: Anti-osteoporotic effect in OVX rats: serum biochemical analysis (ELISA); format: in vivo
# Experimental: (§1) Bilateral ovariectomy (OVX) was performed to establish the rat osteoporosis model according to earlier work (Shakir et al., [2015]). Next, 24 rats were randomly divided into four groups (n = 6): sham operation group (Sham), OVX model group (OVX), free AS group (AS) and AS-AL-mPEG-PLGA group. Rats were anesthetized by intraperitoneal injection of pentobarbital sodium (1%, 8 mL/kg). Later, the rats were placed on a sterile table and fixed prone, while the surgical site on the back was shaved and sterilized with iodophor. Double incisions were taken under the costal back to separate the muscular layer and retroperitoneum into the abdominal cavity. The ovaries were found in the adipose tissue below the kidneys and were removed with bent tweezers and ligated before complete excision of the bilateral ovaries. After confirming that there was no active bleeding, the muscle layer and skin were interlocked, whilst the wound was disinfected. In the Sham group, only a small amount of adipose tissue around the ovaries was removed without damage to both ovaries. The operation was done gently while attention was paid to the sterility principle. After the operation, the rats were kept warm, while drug administration began 4 weeks afterwards at once a day for 12 weeks. Rats in the groups Sham and OVX were given 2 mL of normal saline via the oral route. Rats in the AS and AS-AL-mPEG-PLGA groups orally received 2 mL of free AS (dispersed in CMC-Na solution, 150 mg/kg) and AS-AL-mPEG-PLGA solution (150 mg/kg) every day, respectively.
# All the rats were sacrificed and blood samples were collected. The serum levels of TRACP-5b, BGP, IL-6 and CTX-1 were determined by enzyme-linked immunosorbent assay (ELISA) to evaluate bone absorption and bone formation. The operation steps were strictly in accordance with the instructions of the kits. Finally, the absorbances of the samples were measured at 450 nm with the microplate reader, so as to calculate the concentration of each biochemical index in the serum.
# [6] = test system: rat osteoporosis model (OVX); assay: Anti-osteoporotic effect in OVX rats: micro-CT analysis of femur; format: in vivo
# Experimental: as §1
# In order to evaluate the bone microstructure, the right femur was analyzed with high-resolution micro-CT using the micro-CT imaging system (Siemens, Inveon) according to the method described in the literature (Zhang et al., [2012]). The femur was fixed in the centrifuge tube by the long axis, while the surrounding was filled with gauze. Quantitative parameters of bone microstructure including percent bone volume (BV/TV), trabecular thickness (Tb.Th), trabecular number (Tb.N), trabecular separation (Tb.Sp), structural model index (SMI) and bone mineral density (BMD) were measured. All the digital data, 2 D and 3 D images were provided by the built-in software of micro-CT (Siemens, Inveon).
# [7] = test system: rat osteoporosis model (OVX); assay: Anti-osteoporotic effect in OVX rats: histological analysis (H&E) of femur; format: in vivo; conditions: compared with the OVX group
# Experimental: as §1, with “Rats in the AS and AS-AL-mPEG-PLGA groups orally received 2 mL of free AS (dispersed in CMC-Na solution, 150 mg/kg) and AS-AL-mPEG-PLGA solution (150 mg/kg) every day, respectively.” left out
# [8] = parameters: method as in Zhang et al., 2007; conditions: after p.o. administration, ref Zhang et al., 2007; cited from earlier work
# [9] = oral 150 mg/kg daily, 12 weeks, P < .01
compound,measurement,setting,value
"CN(C)c1ccc(O)c2c1C[C@H]1C[C@H]3[C@H](N(C)C)C(O)=C(C(N)=O)C(=O)[C@@]3(O)C(O)=C1C2=O [free minocycline, minocycline]",minocycline released,[1],~100%
Astragaloside,cumulative release rate,[2]; double distilled water,93.85%
same,cumulative release rate,[2]; pH 1.2 HCl solution,96.87%
same,cumulative release rate,[2]; pH 7.4 PBS solution,95.95%
same,mean plasma concentration at 1440 min,[3]; 150 mg/kg,260 ± 50 ng/mL
same,AUC0-t,[3]; AS dose 150 mg/kg,1520.45 ± 45.19 µg·min/mL
same,Cmax,[3]; AS dose 150 mg/kg,5250 ± 500 ng/mL
same,MRT,[3]; AS dose 150 mg/kg,5.55 ± 0.143 h
same,T1/2,[3]; AS dose 150 mg/kg,6.5952 ± 0.4407 h
same,Tmax,[3]; AS dose 150 mg/kg,2 ± 0 h
same,concentration of AS in bone,[4],1950 ± 170 ng/mL
same,expression level of IL-6 compared with OVX group,[5]; [9],decreased significantly
same,serum level of BGP compared with OVX group,[5]; [9],significantly decreased
same,serum level of CTX-1 compared with OVX group,[5]; [9],significantly decreased
same,serum level of TRACP-5b compared with OVX group,[5]; [9],significantly decreased
same,serum level of IL-6,[5]; oral 150 mg/kg once a day for 12 weeks,53.88 ± 4.23 pg/mL
same,bone microstructure in 2D and 3D micro-CT images,[6]; compared with OVX group,significantly reduce osteoporosis and increase dense bone mass
same,BMD (bone mineral density),"[6]; oral 150 mg/kg daily, 12 weeks",notably increased
same,BV/TV (percent bone volume),"[6]; oral 150 mg/kg daily, 12 weeks",notably increased
same,SMI (structural model index),"[6]; oral 150 mg/kg daily, 12 weeks",substantially reduced
same,Tb.N (trabecular number),"[6]; oral 150 mg/kg daily, 12 weeks",notably increased
same,Tb.Sp (trabecular separation),"[6]; oral 150 mg/kg daily, 12 weeks",substantially reduced
same,Tb.Th (trabecular thickness),"[6]; oral 150 mg/kg daily, 12 weeks",notably increased
same,"adipose tissue in femur, H&E staining",[7],relatively less adipose tissue
same,absolute bioavailability,[8],7.4%
